According to ChEMBL document CHEMBL1127637, “Antiplatelet agents based on cyclooxygenase inhibition without ulcerogenesis. Evaluation and synthesis of 4,5-bis(4-methoxyphenyl)-2-substituted-thiazoles” (J Med Chem, 1994):

What was measured:
Type in all cases: functional
[1] = species on record: Oryctolagus cuniculus; test: In vitro antiplatelet activity against arachidonic acid induced malondialdehyde production
[2] = system: Cavia porcellus; test: Inhibitory effect on platelet aggregation induced by Arachidonic acid (AA) in guinea pigs ex vivo at a dose of 3.2 mg/Kg after 1 hr of oral administration
[3] = system: Cavia porcellus; test: Inhibitory effect on platelet aggregation induced by Collagen in guinea pigs ex vivo at a dose of 3.2 mg/Kg after 1 hr of oral administration
[4] = species on record: Rattus norvegicus; test: In vitro vasodilatory activity in isolated rat aorta; details: read-out: ED50 (the source's name)
[5] = system: Rattus norvegicus; test: Compound was evaluated for collagen-induced platelet aggregation in rat ex vivo at the dose of 32 mg/Kg
[6] = system: Rattus norvegicus; test: Induction of acute stomach lesion at a dose of 10 mg/Kg
[7] = system: Rattus norvegicus; test: Induction of acute stomach lesion at a dose of 100 mg/Kg
[8] = system: Rattus norvegicus; test: Induction of acute stomach lesion at a dose of 32 mg/Kg
[9] = system: Rattus norvegicus; test: Induction of acute stomach lesion at a dose of 320 mg/Kg
[10] = system: Cavia porcellus; test: Inhibitory effect on platelet aggregation induced by Arachidonic acid (AA) in guinea pigs ex vivo at a dose of 3.2 mg/Kg after 6 hr of oral administration
[11] = system: Cavia porcellus; test: Inhibitory effect on platelet aggregation induced by Collagen in guinea pigs ex vivo at a dose of 3.2 mg/Kg after 6 hr of oral administration
[12] = system: Cavia porcellus; test: Inhibitory effect on platelet aggregation induced by Arachidonic acid (AA) in guinea pigs ex vivo at a dose of 1 mg/Kg after 6 hr of oral administration
[13] = system: Cavia porcellus; test: Inhibitory effect on platelet aggregation induced by Collagen in guinea pigs ex vivo at a dose of 1 mg/Kg after 6 hr of oral administration
[14] = species on record: Oryctolagus cuniculus; test: Inhibitory activity on the MDA production at 0.1 uM
[15] = species on record: Oryctolagus cuniculus; test: Inhibitory activity on the MDA production at 1 uM
[16] = system: Cavia porcellus; test: Inhibitory effect on platelet aggregation induced by Arachidonic acid (AA) in guinea pigs ex vivo at a dose of 1 mg/Kg after 1 hr of oral administration
[17] = system: Cavia porcellus; test: Inhibitory effect on platelet aggregation induced by Arachidonic acid (AA) in guinea pigs ex vivo at a dose of 1 mg/kg after 1 hr of oral administration
[18] = system: Cavia porcellus; test: Inhibitory effect on platelet aggregation induced by Arachidonic acid in guinea pigs ex vivo at a dose of 3.2 mg/Kg after 1 hr of oral administration
[19] = system: Cavia porcellus; test: Inhibitory effect on platelet aggregation induced by Collagen in guinea pigs ex vivo at a dose of 1 mg/Kg after 1 hr of oral administration
[20] = species on record: Oryctolagus cuniculus; test: Inhibitory activity on the MDA production at 0.01 uM
[21] = system: Rattus norvegicus; test: Induction of acute stomach lesion at a dose of 100 mg/Kg was determined in 5 animals
[22] = system: Rattus norvegicus; test: Induction of acute stomach lesion at a dose of 32 mg/Kg was determined in 5 animals
[23] = system: Cavia porcellus; test: Inhibitory effect on platelet aggregation induced by Arachidonic acid (AA) in guinea pigs ex vivo at a dose of 1 mg/kg after 6 hr of oral administration
[24] = system: Rattus norvegicus; test: Compound was evaluated for collagen-induced platelet aggregation ex vivo in rat at the dose of 100 mg/Kg
[25] = system: Cavia porcellus; test: ccInhibitory effect on platelet aggregation induced by Arachidonic acid (AA) in guinea pigs ex vivo at a dose of 3.2 mg/Kg after 6 hr of oral administration

Compound | IC50 [1] | EC50 [4] | other results
COc1ccc(-c2nc(/N=C(\N)n3ccnc3)sc2-c2ccc(OC)cc2)cc1 | > 0.1 µM |  | 
CC(=O)Oc1ccccc1C(=O)O [ASPIRIN] | 16 µM | > 600 µM | Inhibition % [2]: 64%; Inhibition % [3]: 9%; ED50 [5]: 8.4 mg/kg; Ulcer index [6]: 0.6; Ulcer index [7]: 2.2; Ulcer index [8]: 2; Ulcer index [9]: 3.8
COc1ccc(-c2nc(C(=O)N=C(N)N)sc2-c2ccc(OC)cc2)cc1 | > 0.1 µM | > 100 µM | 
CCOC(=O)CC(c1nc(-c2ccc(OC)cc2)c(-c2ccc(OC)cc2)s1)N1CCN(C)CC1 (stereo unspecified) | > 1 µM | 2.6 µM | 
COc1ccc(-c2nc(C3=CCN(C)CC3)sc2-c2ccc(OC)cc2)cc1 | < 0.01 µM | 5.9 µM | inhibition in vivo at 3.2 mg/kg [10]: 100%; inhibition in vivo at 3.2 mg/kg [11]: 69.3%
COc1ccc(-c2nc(C3=NNC(=O)CC3)sc2-c2ccc(OC)cc2)cc1 | > 1 µM |  | 
COc1ccc(-c2nc(/N=C(\N)NC3CCCCC3)sc2-c2ccc(OC)cc2)cc1 | > 1 µM | > 100 µM | 
COc1ccc(-c2nc(/N=C(\N)N3CCOCC3)sc2-c2ccc(OC)cc2)cc1 | < 1 µM | 66 µM | Inhibition [15]: 79.9%
COc1ccc(-c2nc(N=C(N)N)sc2-c2ccc(OC)cc2)cc1 | 31 µM | 2 µM | 
COc1ccc(-c2nc(C(=O)NCCN3CCOCC3)sc2-c2ccc(OC)cc2)cc1 | > 1 µM | 8.7 µM | 
CC/N=C(/N)Nc1nc(-c2ccc(OC)cc2)c(-c2ccc(OC)cc2)s1 | > 0.1 µM |  | 
COc1ccc(-c2nc(C(=O)N3CCN(C(=O)NC(C)C)CC3)sc2-c2ccc(OC)cc2)cc1 | > 1 µM | 15 µM | 
COc1ccc(-c2nc(/N=C(\N)NC(C)C)sc2-c2ccc(OC)cc2)cc1 | > 0.1 µM | 9.1 µM | 
COc1ccc(-c2nc(/C=C/C(=O)N3CCN(C)CC3)sc2-c2ccc(OC)cc2)cc1 | > 1 µM | 20 µM | 
COc1ccc(-c2nc(/C=C/C(=O)O)sc2-c2ccc(OC)cc2)cc1 | > 0.1 µM | 55 µM | 
COc1ccc(-c2nc(C(N)=O)sc2-c2ccc(OC)cc2)cc1 | > 1 µM |  | 
COc1ccc(-c2nc(C(=O)N3CCCCC3)sc2-c2ccc(OC)cc2)cc1 | > 1 µM | 11 µM | 
COc1ccc(-c2nc(CN)sc2-c2ccc(OC)cc2)cc1 | > 0.1 µM | 7.7 µM | 
COc1ccc(-c2nc(C(=O)N3CCNC(CCO)C3)sc2-c2ccc(OC)cc2)cc1 (stereo unspecified) | > 1 µM | 9.5 µM | 
COc1ccc(-c2nc(C(=O)N3CCCN(C)CC3)sc2-c2ccc(OC)cc2)cc1 | > 0.1 µM | 4.3 µM | 

Now from value to compound, other results behind:

IC50 [1] | EC50 [4] | Compound | other results
< 0.1 µM | > 100 µM | COc1ccc(-c2nc(CCC(=O)O)sc2-c2ccc(OC)cc2)cc1 | 
< 0.01 µM | > 100 µM | CCOC(=O)/C(C#N)=C/c1nc(-c2ccc(OC)cc2)c(-c2ccc(OC)cc2)s1 | 
0.015 µM | 8.1 µM | COc1ccc(-c2nc(CNC(C)=O)sc2-c2ccc(OC)cc2)cc1 | Inhibition % [12]: 60.9%; Inhibition % [13]: 26.6%
< 0.1 µM | 20 µM | COc1ccc(-c2nc(C(=O)NCCc3cccnc3)sc2-c2ccc(OC)cc2)cc1 | Inhibition [14]: 56.6%
0.66 µM | 12 µM | COc1ccc(-c2nc(CNC(=O)N3CCOCC3)sc2-c2ccc(OC)cc2)cc1 | 
0.022 µM | 15 µM | CNC(=O)NCc1nc(-c2ccc(OC)cc2)c(-c2ccc(OC)cc2)s1 | 
0.031 µM | 2.5 µM | Cc1cc(/N=C(\Nc2nccs2)NC2CCCCC2)c2ccccc2n1 [TIMEGADINE] | Inhibition % [16]: 14.5%; Inhibition % [2]: 52.4%
0.045 µM | 6.8 µM | COc1ccc(-c2nc(C(=O)N3CCCCC3CCO)sc2-c2ccc(OC)cc2)cc1 (stereo unspecified) | Inhibition % [10]: 100%; Inhibition % [11]: 100%
0.97 µM |  | C/N=C(/NC)Nc1nc(-c2ccc(OC)cc2)c(-c2ccc(OC)cc2)s1 | 
< 0.1 µM | > 32 µM | CCOC(=O)C1=C(C)N=C(C)/C(=C(/O)OCC)C1c1nc(-c2ccc(OC)cc2)c(-c2ccc(OC)cc2)s1 (stereo unspecified) | 
< 0.1 µM | 4.2 µM | COc1ccc(-c2nc(CNC(=O)CSc3ccccc3)sc2-c2ccc(OC)cc2)cc1 | inhibition in vivo at 1 mg/kg [12]: 16.5%; inhibition in vivo at 1 mg/kg [13]: -2.6%; Inhibition [14]: 73.6%
0.062 µM | 1.2 µM | CNC(=N)Nc1nc(-c2ccc(OC)cc2)c(-c2ccc(OC)cc2)s1 | Inhibition % [17]: 100%; Inhibition % [18]: 100%; Inhibition % [19]: 9%; Inhibition % [3]: 76.2%
< 0.01 µM | 14 µM | CCN(CC)C(=O)c1nc(-c2ccc(OC)cc2)c(-c2ccc(OC)cc2)s1 | Inhibition [20]: 65%
0.02 µM | > 100 µM | CCOC(=O)/C=C/c1nc(-c2ccc(OC)cc2)c(-c2ccc(OC)cc2)s1 | 
< 0.1 µM | 6 µM | COc1ccc(-c2nc(CNC(=O)CSC)sc2-c2ccc(OC)cc2)cc1 | inhibition in vivo at 1 mg/kg [12]: -3.9%; inhibition in vivo at 1 mg/kg [13]: -13.3%; Inhibition [14]: 73.3%
0.037 µM |  | COc1ccc(-c2nc(/N=C(\N)N(C)C)sc2-c2ccc(OC)cc2)cc1 | Inhibition % [16]: 48.5%; Inhibition % [2]: 100%; Inhibition % [19]: 33.1%; Inhibition % [3]: 100%; Inhibition % [10]: 100%; Inhibition % [11]: 98%
0.025 µM |  | COc1ccc(-c2nc(CNC(=O)c3cccnc3)sc2-c2ccc(OC)cc2)cc1 | Inhibition % [10]: 40.3%; Inhibition % [11]: 37.4%
0.0056 µM | > 300 µM | COc1ccc(-c2nc(C(F)(F)F)sc2-c2ccc(OC)cc2)cc1 [ITAZIGREL] | Inhibition % [16]: 100%; Inhibition % [19]: 100%; Inhibition % [12]: 100%; Inhibition % [13]: 79%; Ulcer index [21]: 1.4; Ulcer index [22]: 0.4
0.096 µM | 8.4 µM | COc1ccc(-c2nc(CN(C)C)sc2-c2ccc(OC)cc2)cc1 | Inhibition % [2]: 100%; Inhibition % [3]: 100%; Inhibition % [10]: 0%; Inhibition % [11]: 0%
0.039 µM | 5.2 µM | COc1ccc(-c2nc(N3CCN(C)CC3)sc2-c2ccc(OC)cc2)cc1 | inhibition in vivo at 1 mg/kg [12]: 60.9%; inhibition in vivo at 1 mg/kg [13]: 65.4%
0.088 µM |  | COc1ccc(-c2nc(C(=O)N3CCN(C)CC3)sc2-c2ccc(OC)cc2)cc1 [FR-122047] | inhibition in vivo at 1 mg/kg [23]: 100%; inhibition in vivo at 3.2 mg/kg [10]: 100%; inhibition in vivo at 1 mg/kg [13]: 83.1%; inhibition in vivo at 3.2 mg/kg [11]: 100%; ED50 [24]: 1.4 mg/kg; Ulcer index [7]: 0
< 0.01 µM | < 100 µM | COc1ccc(-c2nc(C(=O)N3CCOCC3)sc2-c2ccc(OC)cc2)cc1 | Inhibition [20]: 74.8%
0.042 µM | 5.7 µM | COc1ccc(-c2nc(CNC(=O)NC(C)C)sc2-c2ccc(OC)cc2)cc1 | inhibition in vivo at 3.2 mg/kg [25]: 100%; inhibition in vivo at 1 mg/kg [12]: 100%; inhibition in vivo at 1 mg/kg [13]: 100%; inhibition in vivo at 3.2 mg/kg [11]: 100%
< 0.1 µM |  | COc1ccc(-c2nc(C(=O)N(C)C)sc2-c2ccc(OC)cc2)cc1 | inhibition in vivo at 3.2 mg/kg [10]: 89%; inhibition in vivo at 3.2 mg/kg [11]: 4.1%; Inhibition [14]: 51.4%
0.055 µM |  | COc1ccc(-c2nc(CNC(=O)C3=NNC(=O)CC3)sc2-c2ccc(OC)cc2)cc1 | inhibition in vivo at 1 mg/kg [12]: 100%; inhibition in vivo at 3.2 mg/kg [10]: 100%; inhibition in vivo at 1 mg/kg [13]: 84.3%; inhibition in vivo at 3.2 mg/kg [11]: 94.1%
